From patent US10526385B2, “YAP protein inhibiting polypeptide and application thereof” (BAO KANG BIOMEDICAL HEALTHCARE INC, priority 2013, dated 2020)
Where two headings read alike, the source gives them in different places. Where a SMILES comes first, the peptide text is derived from it. Bridges are numbered along the chain shown (N, C = ends). [ ]: non-standard residue; d: D form. Phe(3-Cl) = N[C@@H](Cc1cccc(Cl)c1)C(=O)O; hCys = N[C@@H](CCS)C(=O)O; Nle = CCCC[C@H](N)C(=O)O

Experiments:
[1] = Cell penetration or infiltration of the polypeptides; assay type: cell-based
Source text: In this example, the sequence was modified based on SEQ ID NO.: 1. Some preferred modification based on the tested results included: adding a disulfide linkage within the peptide, or adding a cell-penetrating element.

[2] = Stability in plasma (percentage of residual peptides); details: for Stability* (>24 h): plasma
Experimental: For the YAP inhibitory polypeptides modified in above (a) and (b), the IC50 values for TEAD binding and the stability in plasma were measured.

[3] = system: hepatoma cell line BEL7404; assay type: cell-based; details: Table 8; at a concentration of 1% in cell cultivating for 72 h; unit inferred; read-out: IC50 BEL7404
Experimental: (§1) The hepatoma cell line BEL7404 (purchased from The Chinese Academy of Sciences cell bank) was a cell line with high expression of YAP protein; HCCLM3 (purchased from The Chinese Academy of Sciences cell bank) was a cell line with low expression of YAP protein. The hepatoma cell lines (BEL7404 or HCCLM3) were inoculated into a 96-well plate at the concentration of 2000 cells/well, and incubated overnight in RPMI1640 containing 1% bovine serum at 37° C. The hepatoma cell lines were treated with polypeptides having different concentrations at 37° C. for 72 h.
(§2) Moreover, IC50 values of the cells in 1.1 were determined using CCK-8 kit.
(§3) The polypeptide represented by SEQ ID NO.:1 was further modified. The IC50 values of the polypeptides at a concentration of 1% in cell cultivating for 72 h were measured.

[4] = system: hepatoma cell line HCCLM3; assay type: cell-based; details: Table 8; at a concentration of 1% in cell cultivating for 72 h; unit inferred; read-out: IC50 HCCLM3
Experimental: as §1, §2, §3

[5] = Table 2, percentage of residual peptides after >24 h

Compound | Stability* (>24 h) [2, 5] [%] | IC50 [3] [µM] | IC50 [4] [µM] | further results
CSCC[C@H](NC(=O)[C@@H]1CCCN1C(=O)[C@@H](N)C(C)C)C(=O)N[C@H]1CCSSC[C@@H](C(=O)N[C@@H](CCCCN)C(=O)N2CCC[C@H]2C(=O)N2CCC[C@H]2C(=O)N[C@@H](CCC(=O)O)C(=O)O)NC(=O)[C@H](Cc2ccccc2)NC(=O)[C@H](CO)NC(=O)[C@H](CC(=O)O)NC(=O)[C@@H]2CCCN2C(=O)[C@H](CC(C)C)NC(=O)[C@H](CCCCN)NC(=O)[C@H](CCCNC(=N)N)NC(=O)[C@H](CC(C)C)NC1=O [Peptide 2] | 13 | – | – | Percentage of Cell penetration or infiltration (%) ([1]; Table 2, penetration of the peptide with RRMKWKK taken as 100%): 8%; Stability* (>24 h) ([2]; Table 3, >24 h): 7%
CSCC[C@H](NC(=O)[C@@H]1CCCN1C(=O)[C@@H](N)C(C)C)C(=O)N[C@@H](CCCNC(=N)N)C(=O)N[C@@H](CC(C)C)C(=O)N[C@@H](CCCNC(=N)N)C(=O)N[C@@H](CCCCN)C(=O)N[C@@H](CC(C)C)C(=O)N1CCC[C@H]1C(=O)N[C@@H](CC(=O)O)C(=O)N[C@@H](CO)C(=O)N[C@@H](Cc1ccccc1)C(=O)N[C@@H](Cc1ccccc1)C(=O)N[C@@H](CCCCN)C(=O)N1CCC[C@H]1C(=O)N1CCC[C@H]1C(=O)N[C@@H](CCC(=O)O)C(=O)O [SEQ ID NO.: 1] | 0 | – | – | Percentage of Cell penetration or infiltration (%) [1]: <10%; uptake by cells [1]: difficult for effective uptake by cells; stability ([2]; in words): low stability
CCCC[C@@H]1NC(=O)[C@H](CCCCN)NC(=O)[C@H](CCCCN)NC(=O)[C@H](CC(C)C)NC(=O)[C@H](Cc2cccc(Cl)c2)NC(=O)[C@@H](NC(=O)[C@@H]2CCCN2C(=O)[C@@H](N)C(C)C)CCSSC[C@@H](C(=O)N[C@@H](Cc2ccccc2)C(=O)N[C@@H](CCCCN)C(=O)N2CCC[C@H]2C(=O)N2CCC[C@H]2C(=O)N[C@@H](CCCNC(=N)N)C(=O)N[C@@H](CCCNC(=N)N)C(=O)N[C@@H](CCSC)C(=O)N[C@@H](CCCCN)C(=O)N[C@@H](Cc2c[nH]c3ccccc23)C(=O)N[C@@H](CCCCN)C(=O)N[C@@H](CCCCN)C(=O)O)NC(=O)[C@H](CO)NC(=O)[C@H](C)NC(=O)[C@@H]2CCCN2C1=O [compound 31] (H-VP[hCys][Phe(3-Cl)]LKK[Nle]PASCFKPPRRMKWKK-OH; disulfide 3-12) | – | 16.2 ± 1.9 | 107 ± 23.2 | –
CCCC[C@@H]1NC(=O)[C@@H](NC(=O)[C@H](CCCCN)NC(=O)[C@H](CCCCN)NC(=O)[C@H](CC(C)C)NC(=O)[C@H](Cc2cccc(Cl)c2)NC(=O)[C@@H]2CCCN2C(=O)[C@@H](N)C(C)C)CCSSC[C@@H](C(=O)N[C@@H](CCCNC(=N)N)C(=O)N[C@@H](CCCNC(=N)N)C(=O)N[C@@H](CCSC)C(=O)N[C@@H](CCCCN)C(=O)N[C@@H](Cc2c[nH]c3ccccc23)C(=O)N[C@@H](CCCCN)C(=O)N[C@@H](CCCCN)C(=O)O)NC(=O)[C@@H]2CCCN2C(=O)[C@@H]2CCCN2C(=O)[C@H](CCCCN)NC(=O)[C@H](Cc2ccccc2)NC(=O)[C@H](CO)NC(=O)[C@H](C)NC(=O)[C@@H]2CCCN2C1=O [compound 33] (H-VP[Phe(3-Cl)]LKK[hCys][Nle]PASFKPPCRRMKWKK-OH; disulfide 7-16) | – | 10.8 ± 2.1 | 81.1 ± 13.1 | –
